Measurements: article PMC8850458, “The AUTOTAC chemical biology platform for targeted protein degradation via the autophagy-lysosome system” (Nature Communications, 2022)
Several values for one entry are separate records, joined by “and”; a condition that tells them apart may be missing. Identical values can stand only once. Values belong to the compound of their own block, whether it stands above or below them.

What was measured:
[1] = molecular target: T1, mutant desminL385P (Homo sapiens, UniProt P17661, L385P); assay: WB degradation of mutant desmin in HeLa cells; format: cell-based; conditions: exogenously expressed
T1 construct: expressed in transfected cells; host or cells: HeLa, transient
T1 sequence (P17661 whole entry L385P): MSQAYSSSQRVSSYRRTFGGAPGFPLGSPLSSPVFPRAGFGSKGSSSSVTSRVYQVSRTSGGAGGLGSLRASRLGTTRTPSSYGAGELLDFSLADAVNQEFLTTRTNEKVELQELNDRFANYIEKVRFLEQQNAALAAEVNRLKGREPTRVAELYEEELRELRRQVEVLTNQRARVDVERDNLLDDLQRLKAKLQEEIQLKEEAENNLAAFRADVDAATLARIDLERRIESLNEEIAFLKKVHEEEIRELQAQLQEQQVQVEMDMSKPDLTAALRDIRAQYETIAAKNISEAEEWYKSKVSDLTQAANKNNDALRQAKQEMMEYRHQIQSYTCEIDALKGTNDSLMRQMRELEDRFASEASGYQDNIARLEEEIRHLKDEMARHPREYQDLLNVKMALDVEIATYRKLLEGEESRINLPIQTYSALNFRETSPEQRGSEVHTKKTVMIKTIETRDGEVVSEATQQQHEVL
Method: (§1) Adherent cells were washed with phosphate-buffered saline (PBS) and cell pellets were lysed in SDS-based sample buffer (277.8 mM Tris-HCI, pH 6.8, 4.4% LDS, 44.4% (v/v) glycerol) containing beta-mercaptoethanol. Alternatively, cell pellets or protein supernatants were lysed in 5X Laemmli sample buffer. Whole-cell lysates were separated using SDS-PAGE, and transferred onto polyvinyllidene difluoride membranes at 100 V for 2 h at 4 °C. The membrane was incubated with a blocking solution consisting 4% skim milk in PBS solution for 30 min at room temperature and incubated with primary antibodies overnight, followed by incubation with host-specific HRP-conjugated secondary antibodies (1:10000 dilution). For signal detection, the membrane was developed with a mixture of ECL solution (Thermo Fisher Scientific) using X-ray films. Densitometry of developed bands was measured and analyzed with ImageJ (NIH, Bethesda).
(§2) Supplementary Fig. 5. AUTOTACs selectively target pathological aggregation-prone proteins for autophagic degradation. (a) WB in HEK293T cells treated with PBA-1105 (1 μM) and MG132 (1 μM, 24 h) at the indicated time points. (b) ICC of HeLa cells treated with the indicated compounds (1 μM, 24 h). Scale bar, 10 μm. (c) WB in HEK293T cells treated with PBA-1105 (500 nM, 24 h) and MG132 (1 μM, 24 h) under siRNA-mediated knockdown of p62 or ATG7 (20 nM, 48 h). (d) ICC in HeLa cells transiently expressing WIPI2-GFP and treated with Anle138b-F105 (1 μM, 24 h). Scale bar, 10 μm. (e) ICC in HeLa cells treated with […]
(§3) nM, 24 h). (g, h) WB in HeLa cells transiently expressing wild type or mutant (L385P) desmin-flag with LacZ-myc and treated with PBA-1105, PBA-1105b or Anle138b-F105 at the […]

[2] = molecular target: tauP301L (Homo sapiens, UniProt P10636, P618L); assay: WB degradation of tauP301L in SH-SY5Y-tauP301L cells; format: cell-based; conditions: SH-SY5Y-tauP301L cells
Chain of tauP301L (P10636 1-441 isoform P10636-8 P301L): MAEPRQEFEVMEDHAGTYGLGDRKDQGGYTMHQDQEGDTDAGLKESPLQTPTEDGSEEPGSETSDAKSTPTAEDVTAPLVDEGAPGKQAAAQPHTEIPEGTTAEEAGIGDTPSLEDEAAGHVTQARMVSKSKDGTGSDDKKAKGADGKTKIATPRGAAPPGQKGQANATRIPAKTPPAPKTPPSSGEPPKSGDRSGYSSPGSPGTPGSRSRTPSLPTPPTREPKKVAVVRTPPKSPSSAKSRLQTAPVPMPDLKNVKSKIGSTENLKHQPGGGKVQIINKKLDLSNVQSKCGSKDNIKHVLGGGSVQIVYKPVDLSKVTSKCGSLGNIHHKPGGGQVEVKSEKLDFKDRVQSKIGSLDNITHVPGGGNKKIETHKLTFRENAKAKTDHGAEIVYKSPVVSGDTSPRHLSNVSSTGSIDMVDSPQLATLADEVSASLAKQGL
Method: as §1

[3] = molecular target: T2, wild-type desmin (Homo sapiens, UniProt P17661); assay: WB degradation of wild-type desmin in HeLa cells; format: cell-based; conditions: exogenously expressed
T2 construct: expressed in transfected cells; host or cells: HeLa, transient
T2 sequence (P17661 whole entry): as the sequence (P17661 whole entry L385P) above, with P385L counted along it
Method: as §1, §2, §3

[4] = system: Ub^+ and p62^+ puncta; assay: ICC of Ub (FK2) and p62 puncta in HeLa cells; format: cell-based; conditions: 1 μM 24 h, autophagy inhibition (HCQ)
Method: Fig. 4 Targeted autophagic delivery and degradation of misfolded protein cargoes using AUTOTACs with aggregate-binding warhead. a A model illustrating the mode of action of aggregate-targeting AUTOTAC. b Chemical structures of PBA-1105, PBA-1106, Anle138b-F105 and PBA-1105b. c In vitro p62 oligomerization assay in HEK293T cells incubated with the indicated compounds in (b). d WB in HEK293T cells treated with MG132 (1 μM, 24 h), HCQ (10 μM, 24 h), PBA-1105, YTK-1105, and PBA (1 μM, 24 h). e Identical to (d), but with Anle-F105. f ICC of HeLa cells treated with HCQ (10 μM, 24 h), MG132 (2 μM, 18 h) or both in the presence of PBA-1106, YOK-1106 or PBA (1 μM, 24 h). Scale bar, 10 μm. g Quantification of (f) (n = 3, 50 cells). h ICC of HeLa cells treated with Anle138b-F105 (1 μM, 24 h). Scale bar, 10 μm. i Quantification of (h) (n = 3, 50 cells). When indicated, n = 3 biologically independent experiments each counting 50 cells. Data are presented as mean values ± SD where relevant. P-values (from a two-sided unpaired t test): ***P < 7.66E−05. Source data are provided with this paper.
(§4) Cells were cultured on coverslips coated with poly-L-lysine (Sigma) to observe cellular localization of proteins. Using 4% paraformaldehyde in PBS (pH 7.4), the cells were fixed for 15 min at room temperature and washed three times for 5 min with PBS. After fixing, the cells were permeabilized with 0.5% Triton X-100 in PBS solution for 15 min and washed three times with PBS for 5 min. The cells were blocked containing 2% BSA in PBS solution for 1 h at room temperature. Subsequently, the cells were incubated with primary antibody diluted in 2% BSA/PBS solution overnight at 4 °C, followed by washing the cells three times for 10 min with PBS and incubated with Alexa Fluor-conjugated secondary antibody diluted in 2% BSA/PBS for 30 min at room temperature. Using a DAPI-containing mounting medium (Vector Laboratories), the coverslips were mounted on glass slides. Confocal images were taken by laser scanning confocal microscope 510 Meta (Zeiss) and analyzed by Zeiss LSM Image Browser (ver. 4.2.0.121). […] Quantification results are shown as mean ± S.D. or S.E.M. of three independent experiments

[5] = molecular target: T3, p62 (Homo sapiens, UniProt Q13501); assay: In vitro p62 oligomerization assay; format: biochemical; conditions: HEK293T lysate
T3 construct: expressed in transfected cells; host or cells: HEK293T, transient; whole lysate used
T3 sequence (Q13501 whole entry): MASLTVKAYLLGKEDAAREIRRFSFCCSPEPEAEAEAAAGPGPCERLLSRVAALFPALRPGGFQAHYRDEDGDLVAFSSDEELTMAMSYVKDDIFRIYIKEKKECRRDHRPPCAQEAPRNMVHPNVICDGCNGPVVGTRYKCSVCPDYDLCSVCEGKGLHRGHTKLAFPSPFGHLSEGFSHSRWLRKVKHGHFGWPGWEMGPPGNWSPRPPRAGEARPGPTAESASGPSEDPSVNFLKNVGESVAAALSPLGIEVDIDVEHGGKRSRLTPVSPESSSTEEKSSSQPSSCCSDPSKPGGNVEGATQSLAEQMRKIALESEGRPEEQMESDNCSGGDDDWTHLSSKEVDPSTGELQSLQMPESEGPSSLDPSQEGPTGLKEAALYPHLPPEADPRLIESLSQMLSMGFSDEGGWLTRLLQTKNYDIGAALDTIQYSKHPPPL
Method: HEK293T cells were transiently transfected with a plasmid encoding p62-myc/his fusion proteins. Cells were resuspended in lysis buffer [50 mM HEPES (pH 7.4), 0.15 M KCl, 0.1% Nonidet P-40), 10% glycerol, containing a mixture of protease inhibitors and phosphatase inhibitor (Abcam)]. To lyse the cells, 10 cycles of freezing and thawing was done, followed by centrifugation at 13,000 × g for 20 min at 4 °C. Using a BCA assay, the protein concentration of the supernatant was measured. A total of 1 μg of protein was incubated with 1 mM of p62-ZZ ligands in the presence of 100 μM bestatin (Enzo) at room temperature for 2 h. After incubation, each sample was mixed with non-reducing 4X LDS sample buffer, heated at 95 °C for 10 min, and resolved using 4–20% gradient SDS-PAGE (Bio-Rad). To monitor the conversion of p62 monomers into oligomers or aggregates, IB assay was performed using anti-myc antibody.

[6] = system: U87-MG glioblastoma cells; assay: Wound healing assay in U87-MG cells; format: cell-based; parameters: wound area, single experiment / wound area, Average: unit not given here; conditions: Fig. S4j
Method: To analyze cell migration in two dimensions, U-87 MG or ACHN cells were plated to a monolayer. Cells were scratched with a sterile 10 μl pipette tip and the debris was removed using medium. Cells were treated with compounds and incubated for different time to monitor cell behavior. Photographs were obtained using a microscope at different time point.

[7] = molecular target: T3, p62; assay: In vitro pulldown assay with biotinylated p62 ligands; format: binding; conditions: biotinylated ligand, HEK293T extracts
Method: A set of synthetic 12-mer peptides corresponding to the N-terminal sequences of the V-BiP (V[19]-[…]-biotin) and V-RGS4 (V^2-[…]-biotin) was C-terminally biotin-conjugated. Alternatively, biotinylated versions of YOK-1304, YT-8-8, YTK-1105, YOK-2204, and PBA were synthesized. To cross-link the above peptides with resin beads, biotin-conjugated peptides, and small molecule were mixed with high-capacity streptavidin agarose resin (Thermo Fisher Scientific) at a ratio of 0.5 mg of peptide per 1 mL of settled resin and incubated on a rotator at 4 °C overnight. After washing five times with PBS, the peptide/small molecule-bead conjugates were diluted with PBS at a 1:1 ratio. To prepare protein extracts, cells were collected by centrifugation and lysed by freezing and thawing at least 10 times in hypotonic buffer [10 mM KCl, 1.5 mM MgCl2, and 10 mM HEPES (pH 7.9)] with a protease inhibitor mix (Sigma). After centrifugation at 15,000 rpm 4 °C for 15 min, proteins were quantified using a BCA protein assay kit (Thermo Fisher Scientific). Total protein (200 μg) diluted in 300 μL of binding buffer [0.05% Tween-20, 10% glycerol, 0.2 M KCl, and 20 mM HEPES (pH 7.9)] were mixed with 50 μL of peptide/small molecule-bead resin and incubated at 4 °C for 2 h on a rotator. The protein-bound beads were collected by centrifugation at 2400 × g for 3 min and washed five times with binding buffer. The beads were resuspended in 25 μL of SDS sample buffer, heated at 95 °C for 5 min, and subjected to SDS/PAGE and immunoblotting.

[8] = system: autophagic turnover of p62 and LC3; assay: Autophagic flux assay in HeLa cells with or without HCQ; format: cell-based; conditions: 2.5 μM, 24 h, with or without HCQ 10 µM 24 h
Method: Fig. 1 Nt-Arg-mimicking p62-ZZ ligands activate p62-dependent selective macroautophagy. a A model illustrating the mode of action of autophagy-targeting ligands. b Chemical structures of autophagy-targeting ligands. c In vitro pulldown assay in HEK293T cells of the 12-mer V-BiP peptide or autophagy-targeting ligands. d In vitro p62 oligomerization assay in HEK293T cells incubated with the p62-ZZ ligands in (b). e ICC of HeLa cells treated with p62-ZZ ligands in (b) (2.5 μM, 24 h). Scale bar, 10 μm. f, g Quantification of (e) for puncta formation and co-localization, respectively (n = 3 biologically independent experiments each counting 50 cells). h A schematic/formulae for autophagy flux index. i Autophagic flux assay in HeLa cells treated with YOK-1304 or YTK-105 (2.5 μM, 24 h) in the presence or absence of HCQ (10 µM, 24 h). Data are presented as mean values ± SD where relevant. P-values (from a two-sided unpaired t test): ***P < 0.000956 (for p62 punctate formation), ***P < 0.000539 (for LC3 punctate formation), ***P < 0.000925 (for p62-LC3 co-localization). Source data are provided with this paper. TEXT PRINTED IN THE PICTURE: (i) YOK 1304: Normalized p62 A.F. index: 2.8; Normalized LC3 II/I A.F. index: 4.2 | (i) YTK 105: Normalized p62 A.F. index: 4.6; Normalized LC3 II/I A.F. index: 11.2
as §1

[9] = system: p62 and LC3 punctate structures; assay: ICC of p62 and LC3 puncta formation and co-localization in HeLa cells; format: cell-based; conditions: 2.5 μM, 24 h
Method: as §4

[10] = system: p62-positive and WIPI2-positive punctate structures; assay: ICC of WIPI2-p62 co-localization in HeLa cells; format: cell-based
Method: as §4
Supplementary Fig. 2. Characterization of p62-ZZ ligands (a, c, e) 3-D modeling of p62 […]
μM, 6 h). (m) Quantification of l for co-localization (n=3, 50 cells). Scale bar, 10 µm. (n) […]

[11] = molecular target: T4, methionine aminopeptidase 2 (MetAP2) (Homo sapiens, UniProt P50579); assay: Western blot degradation of MetAP2; format: cell-based; conditions: 293T, 24 h
T4 construct: Targeted autophagic degradation of endogenous oncoproteins by AUTOTAC; endogenous in cells; host or cells: HEK293 / HEK293T, U87-MG
T4 sequence (P50579 whole entry): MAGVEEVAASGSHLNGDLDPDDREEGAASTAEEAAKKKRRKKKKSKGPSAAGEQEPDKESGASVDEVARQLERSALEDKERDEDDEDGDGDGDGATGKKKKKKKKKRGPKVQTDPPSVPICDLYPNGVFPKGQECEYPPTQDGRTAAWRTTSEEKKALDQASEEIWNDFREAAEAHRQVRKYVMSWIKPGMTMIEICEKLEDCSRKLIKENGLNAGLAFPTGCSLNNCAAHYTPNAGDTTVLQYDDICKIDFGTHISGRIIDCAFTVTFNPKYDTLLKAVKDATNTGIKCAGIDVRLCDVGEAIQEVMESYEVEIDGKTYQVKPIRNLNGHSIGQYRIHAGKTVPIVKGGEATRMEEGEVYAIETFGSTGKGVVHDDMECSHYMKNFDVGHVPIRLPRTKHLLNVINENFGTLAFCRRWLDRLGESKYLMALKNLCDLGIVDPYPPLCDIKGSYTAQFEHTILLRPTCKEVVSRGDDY
Method: as §1

[12] = HeLa expressing WIPI2-GFP, 2.5 μM, 6 h
[13] = HeLa, endogenous WIPI2, 2.5 μM, 24 h

- degradation of mutant desminL385P [1]: induced the degradation
- degradation of wild-type desmin [3]: not wild-type desmin
Compound: O=C(CCCc1ccccc1)NCCOCCOCCOCCOCCOCCOCCOCCNCc1ccc(OCc2ccccc2)c(OCc2ccccc2)c1 [PBA-1105b]
- degradation of tauP301L [2]: at a similar efficiency as the original PBA-1105

- p62 self-oligomerization [5]: triggered its self-oligomerization
- DC50 [2]: 1 to 10 nM
- Dmax,24 hr of tauP301L degradation [2]: 100 nM
Compound: O=C(CCCc1ccccc1)NCCOCCOCCOCCNC[C@@H](O)COc1ccc(OCc2ccccc2)c(OCc2ccccc2)c1 [PBA-1106]
- p62 puncta structures (per cell) [4]: 14 ± 4.2

Compound: OCCNCc1cccc(OCc2ccccc2)c1 [YTK-105]
- wound area, single experiment ([6]; 0h): 1132236 and 1199923 and 1182736
- wound area, Average % ([6]; 0h (reference = 100)): 100%
- wound area, Average ([6]; 0h, con 1278325): 1171632
- wound area, single experiment ([6]; 4h): 859025 and 791115 and 860952
- wound area, Average ([6]; 4h, con 815372): 837031
- wound area, Average % ([6]; 4h, relative to 0h, con 63.7844): 71.4415%
- wound area, single experiment ([6]; 12h): 450234 and 520420 and 504520
- wound area, Average ([6]; 12h, con 627015): 491725
- wound area, Average % ([6]; 12h, relative to 0h, con 49.0497): 41.9692%
- wound area, single experiment ([6]; 24h): 288632 and 435340 and 335340
- wound area, Average ([6]; 24h, con 144265): 353104
- wound area, Average % ([6]; 24h, relative to 0h, con 11.2855): 30.1378%
- binding of p62 in pulldown [7]: bound
- Normalized LC3 II/I A.F. index [8]: 11.2
- Normalized p62 A.F. index [8]: 4.6
- LC3 puncta formation, AVG of cells of 50 [9]: 42.3333
- LC3 puncta formation, percentage AVG [9]: 84.6667%
- p62-LC3 colocalization, AVG of cells of 50 [9]: 45
- p62-LC3 colocalization, percentage AVG [9]: 90%
- p62 puncta formation, AVG of cells of 50 [9]: 43.6667
- p62 puncta formation, percentage AVG [9]: 87.3333%
- LC3 puncta formation, cells of 50 cells counted ([9]; single experiments): 38 and 42 and 47
- p62-LC3 colocalization, cells of 50 cells counted ([9]; single experiments): 46 and 43
- p62 puncta formation, cells of 50 cells counted ([9]; single experiments): 43 and 41 and 47
- WIPI2-GFP-p62 colocalization, AVG of cells of 50 [10, 12]: 25
- WIPI2-GFP-p62 colocalization, percentage AVG [10, 12]: 50%
- WIPI2-GFP-p62 colocalization, cells of 50 cells counted ([10]; HeLa expressing WIPI2-GFP, 2.5 μM, 6 h, single experiments): 31 and 18 and 26
- WIPI2-p62 colocalization, AVG of cells of 50 [10, 13]: 40.6667
- WIPI2-p62 colocalization, percentage AVG [10, 13]: 81.3333%
- WIPI2-p62 colocalization, cells of 50 cells counted ([10]; HeLa, endogenous WIPI2, 2.5 μM, 24 h, single experiments): 48 and 33 and 41
- MetAP2 normalized to control, AVG % ([11]; 2.5uM): 101.594%
- MetAP2 normalized to control, AVG % ([11]; 10uM): 142.103%
